The test system of series [1] is MDA-MB-231 cells. Briefly: 3D anchorage-independent growth (mammosphere formation) assay. Particulars: for Mammosphere formation inhibition compared to Bedaquiline (FIG. 12): 0.5 μM to 10 μM, all concentrations tested; for Mammosphere formation inhibition at the higher concentrations (FIG. 12): higher concentrations of 0.5 μM to 10 μM range. Format: cell-based, human. As for the experimental part: One-way ANOVA, Dunnett's multiple comparisons test, **p<0.005, ***p<0.0005.
3D Anchorage Independent Growth Assay: This assay is also referred to as the mammosphere formation assay. A single-cell suspension was prepared using enzymatic, and manual disaggregation (25-g needle). Then, cells were plated at a density of 500 cells/cm^2 in mammosphere medium (DMEM-F12+1× B-27 Plus Supplement+20 ng/ml EGF+Pen/Strep) under non-adherent conditions, in culture dishes pre-coated with (2-hydroxyethylmethacrylate) (poly-HEMA, Sigma Aldrich Inc.), called “mammosphere plates.” Cells were grown for 5 days and maintained in a humidified incubator at 37° C. After 5 days of culture, 3D-mammospheres >50 μm were counted using an eye piece (“graticule”), and the percentage of cells plated which formed spheres was calculated and is referred to as percent mammosphere formation, and was normalized to one (1=100% MFE). 3D mammosphere formation efficiency (MFE) was analyzed in both the ATP-low and ATP-high sub-populations of cells. All 3D mammosphere experiments were performed in triplicate, at least 3 times independently.

In series [2] the test system is MDA-MB-231 cells. The series can be described thus: Cell migration assay (Transwells). The series is classed as cell-based. To be noted: Homo sapiens, 32 hours then 16 hours in Transwells. As for the experimental part: MDA-MB-231 cells were cultured in presence of Bedaquiline (10 μM) for 32 hours and moved to the Transwells for 16 hours in presence of Bedaquiline (10 μM). Unpaired t-test, **p<0.005.
Cell Migration Assays: Briefly, 3.5×10^4 cells in 0.5 ml of serum-free DMEM with 0.1% BSA were added to the wells of 8-μm pore, non-coated membrane modified Boyden chambers (Transwells). The lower chambers contained 10% fetal bovine serum in DMEM to serve as a chemo-attractant. Cells were incubated at 37° C. and allowed to migrate throughout the course of 16 hours. Noninvasive cells were removed from the upper surface of the membrane by scrubbing with cotton swabs. Chambers were stained in 0.5% crystal violet diluted in 100% methanol for 30-60 min, rinsed in water and examined under a bright-field microscope. Values for invasion and migration were obtained by counting five fields per membrane (20× objective) and represent the average of three independent experiments.

A further series concerns chicken embryos. The series can be described thus: CAM assay: embryo toxicity. Particulars: all concentrations tested, daily for 8 days. The series is classed as in vivo. Here is the method: (§1) Next, to test in vivo activity, the well-established CAM assay was used with MDA-MB-231 cells, to measure the effect of Bedaquiline effects on tumor growth, spontaneous metastasis and embryo toxicity. FIG. 11A illustrates the timeline for the CAM assay. An inoculum of 1×10^6 MDA-MB-231 cells was added onto the CAM of each egg (day E9) and then eggs were randomized into groups. On day E10, tumors were detectable and they were then treated daily for 8 days with vehicle alone (1% DMSO in PBS) or Bedaquiline. After 8 days of drug administration, on day E18, all tumors were weighed, and the lower CAM was collected to evaluate the number of metastatic cells, as analyzed by qPCR with specific primers for Human Alu sequences. Before each drug administration, treatment tolerability was evaluated by scoring the number of live and dead chicken embryos.
(§2) Tumor Growth, Metastasis and Embryo Toxicity Assays: Xenograft assays were carried out by INOVOTION (Société: 811310127), La Tronche-France. […] For tumor growth assays, at least 14 tumor samples were collected and analysed per group (N≥14). […] Genomic DNA was extracted from the CAM (commercial kit) and analyzed by qPCR with specific primers for Human Alu sequences. […] Before each administration, the treatment tolerability was evaluated by scoring the number of live and dead embryos.

The test system of the next series is MCF10A cells. Briefly: 2D monolayer growth, non-tumorigenic control cells. The series is classed as cell-based. To be noted: 10 μM, normal control human mammary epithelial cell line. As for the experimental part:
(§3) FIGS. 8A and 8B show monolayer growth of MDA-MB-231 and MCF10A cells, respectively, treated with 10 μM Bedaquiline over time. […] Unpaired t-test *p<0.05, **p<0.005.
(§4) Reagents and Model Cell Lines: It should be apparent that other cell lines may be used without departing from the present approach. BioTracker ATP-Red 1 (#SCT045) was obtained commercially from Merck-Millipore, Inc. The triple-negative human breast cancer cell line, MDA-MB-231, was obtained from the American Type Culture Collection (ATCC). MCF10A cells, a non-tumorigenic human breast epithelial cell line, were also obtained from ATCC. MDA-MB-231 cells were cultured in DMEM (High Glucose) supplemented with 10% Fetal Bovine Serum (FBS, Sigma Aldrich), 2 mM Glutamax (Gibco, Life Technologies, Waltham, MA, USA), and 1% penicillin/streptomycin (Gibco, Life Technologies). The MCF10A cell line was maintained in a mammary epithelial cell growth medium (MEGM; Lonza, Basel, Switzerland) supplemented with 0.4% Bovine pituitary extract (BPE), 0.1% insulin, 0.1% hEGF, 0.1% Hydrocortisone, 0.1% GA-1000, and 100 ng/ml of cholera toxin. All cell lines were cultured at 37° C. in 5% CO2 in a humidified atmosphere.

The test system of series [3] is MDA-MB-231 cells. The series can be described thus: ATP assay using BioTracker ATP-Red 1 (mitochondrial ATP levels). Format: cell-based. To be noted: Homo sapiens, 120 hours of treatment, read-out: Maximal inhibition of mitochondrial ATP production. Here is the method: FIG. 7 compares the fold-change of BioTracker ATP-Red (signal mean) between the control and MDA-MB-231 cells treated with Bedaquiline. […] The data in FIG. 7 based on two-way ANOVA, Sidak's multiple comparisons test, *p<0.05, **p<0.005, ***p<0.0005, ****p<0.0001.
ATP assay using BioTracker ATP-Red 1: Cells were stained with BioTracker ATP-Red 1 after various treatments. After 30 minutes of incubation, the cells were washed twice with DPBS, collected and dissociated into a single-cell suspension with a 40 μm cell strainer. The cells were analyzed using the Attune NxT Flow Cytometer. Means of the signal (at 570 nm) were compared.

A further series deals with p21. The series can be described thus: Western blot analysis of p21 protein expression. To be noted: 0.1, 1 and 10 μM, 120 hours.
In series [4] the test system is MDA-MB-231 cells. Briefly: Live cell/dead cell analysis by FACS. The series is classed as cell-based, human. Particulars: 1 and 10 μM. As for the experimental part:
FIGS. 10D-10F show the results of live cell/dead cell analysis. MDA-MB-231 cells were treated with Bedaquiline (1 and 10 μM) or vehicle alone, for 48, 72 and 120 hours, and then subjected to live/dead analysis by FACS. […] However, at 72 and 120 hours (FIGS. 10E and 10F), a decrease in the live cell population and an increase in the dead cell population can be seen. […] Two-way ANOVA, Sidak's multiple comparisons test, ns=not significant, *p<0.01, **p<0.001, ***p<0.0005.

The target in a further series is ATP5F1C (Homo sapiens, UniProt P36542). Particulars: 0.1, 1 and 10 μM; 24, 48, 72 and 120 hours; relative to vehicle (DMSO).
Series [5] has as its system MDA-MB-231 cells. The series can be described thus: Cell cycle analysis by FACS. Format: cell-based, human. Here is the method:
There is a 2-fold reduction of MDA-MB-231 cells in S-phase and a concomitant 2-fold increase in the sub-G0-G1 population, after 120 hours of treatment. Two-way ANOVA, Sidak's multiple comparisons test, ns=not significant, ***p<0.0005. FIGS. 9C and 9D show representative FACS tracings for the control and for cells treated with Bedaquiline, respectively.
FIGS. 10A-10C show cell cycle populations for MDA-MB-231 cells treated with Bedaquiline (1 and 10 μM) or vehicle alone, after 48, 72 and 120 hours, respectively. Cell cycle analysis was performed using FACS. […] However, at 72 and 120 hours, a decrease in the S-phase population and a concomitant increase in the sub-G0-G1 population can be seen in FIGS. 10B and 10C. Two-way ANOVA, Sidak's multiple comparisons test, ns=not significant, *p<0.01, **p<0.001, ***p<0.0005.
Cell Cycle Analysis by FACS: Cell-cycle analysis was performed on the ATP-high and ATP-low cell sub-populations, by FACS analysis using the Attune NxT Flow Cytometer. Briefly, after trypsinization, the re-suspended cells were incubated with propidium iodide, as per the manufacturer's recommendations (Merck Millipore, Inc.). At least 25,000 events were analyzed per condition. Gated cells were categorized into cell-cycle stages.

Series [6] relates to MDA-MB-231 cells. The series can be described thus: 2D monolayer growth. The series is classed as cell-based, human. To be noted: 10 μM, time-dependent. Here is the method: as §3, §4
The subject of the next series is PARP. The series can be described thus: Western blot analysis of PARP protein expression. Particulars: 0.1, 1 and 10 μM, 120 hours.
The test system of series [7] is MDA-MB-231 cells. The series can be described thus: CAM assay: tumor growth and spontaneous metastasis. Format: in vivo, chicken. Particulars: daily for 8 days. As for the experimental part: as §1, §2

Take `COc1nc2ccc(CCCCOC(=O)CCCCCCCCCCC[P+](c3ccccc3)(c3ccccc3)c3ccccc3)cc2cc1[C@@H](c1ccccc1)[C@@](O)(CCN(C)C)c1cccc2ccccc12.[Br-]` [structure [2B]]: in the series with MDA-MB-231 cells [1], the “Mammosphere formation inhibition compared to Bedaquiline (FIG. 12)” value is listed as “more potent than unconjugated Bedaquiline” and the “Mammosphere formation inhibition at the higher concentrations (FIG. 12)” value was “exceptional mammosphere formation inhibition”.

For `COc1nc2ccc(CCCCOC(=O)CCCCC[P+](c3ccccc3)(c3ccccc3)c3ccccc3)cc2cc1[C@@H](c1ccccc1)[C@@](O)(CCN(C)C)c1cccc2ccccc12.[Cl-]` [structure [3B], [6-[4-[3-[(1R,2S)-4-(dimethylamino)-2-hydroxy-2-(1-naphthyl)-1-phenyl-butyl]-2-methoxy-6-quinolyl]butoxy]-6-oxo-hexyl]-triphenyl-phosphonium; chloride], in the series with MDA-MB-231 cells [1], the “Mammosphere formation inhibition compared to Bedaquiline (FIG. 12)” value is “more potent than unconjugated Bedaquiline” and the “Mammosphere formation inhibition at the higher concentrations (FIG. 12)” value is “exceptional mammosphere formation inhibition”.

As to `COc1nc2ccc(Br)cc2cc1[C@@H](c1ccccc1)[C@@](O)(CCN(C)C)c1cccc2ccccc12` [Bedaquiline, (1R,2S)-1-(6-bromo-2-methoxyquinolin-3-yl)-4-(dimethylamino)-2-naphthalen-1-yl-1-phenylbutan-2-ol], in the series with MDA-MB-231 cells [2], the inhibition at 10 µM was approximately 50%. The “Toxicity for chick embryos (egg survival)” value with chicken embryos is on record as “not toxic”. In the series on MCF10A cells, the 2D monolayer growth result is “No effect was observed”. For the same compound, the inhibition at 10 µM in the series on MDA-MB-231 cells [3] is 75%. For the same compound, the p21 protein expression result in the series with p21 is “decreased in a concentration-dependent manner”. Also, in the series with MDA-MB-231 cells [4] (72 and 120 hours), the “Apoptotic cell population (early or late)” value is “no increase”, the Dead cell population entry is recorded as “increase” and the Live cell population result is “decrease”. In the series on MDA-MB-231 cells [4] (48 hours), the Live/dead cell populations result is on record as “No effects were detectable”. Besides, the inhibition at 10 µM with MDA-MB-231 cells [1] (Homo sapiens, MDA-MB-231, 10 μM) is approximately 65%. Moreover, at ATP5F1C, the ATP5F1C protein expression entry is “down-regulated”. For the same compound, in the series with MDA-MB-231 cells [5] (1 and 10 μM, 72 and 120 hours), the S-phase population result is “decrease” and the sub-G0-G1 population result is given as “increase”. In addition, the Cell cycle populations result with MDA-MB-231 cells [5] (1 and 10 μM, 48 hours) was “No effects were detectable”. In the series with MDA-MB-231 cells [5] (after 120 hours of treatment), the “Increase in the sub-G0-G1 population” value is recorded as 2 fold and the “Reduction of cells in S-phase” value was 2 fold. For the same compound, in the series on MDA-MB-231 cells [6], the 2D monolayer growth result is reported as “effectively inhibits 2D growth”. Also, in the series on PARP, the PARP protein expression entry is listed as “decreased in a concentration-dependent manner”. In addition, the “Inhibition of spontaneous metastasis” value in the series with MDA-MB-231 cells [7] (120 μM treatment, qPCR Human Alu in lower CAM) is given as 84%. Also, the “Effect on tumor growth (average tumor weight)” value with MDA-MB-231 cells [7] (day E18) was “no statistically significant effect”.

These data come from patent publication US20250049823A1, “MITOCHONDRIAL ATP INHIBITORS TARGETING THE GAMMA SUBUNIT PREVENT METASTASIS” (LUNELLA BIOTECH, INC., priority 2021, published 2025).
